{"source": "patent US10973815B2", "about": "“Delta opioid agonist mu opioid antagonist compositions and methods for treating Parkinsons disease” (priority 2016, dated 2021)", "key": {"[1]": {"test_system": "L-DOPA naïve MPTP-lesioned macaques", "assay": "Monotherapy with Formula (i) in L-DOPA naïve MPTP-lesioned macaques", "assay_type": "in vivo, Macaca fascicularis", "procedure": "This activity is measured by an infra-red movement detector and captures all movement, normal and abnormal. MPTP-lesioned cynomolgus monkeys received acute oral administration of either vehicle or Formula (i) (1, 10 or 20 mg/kg) according to a randomized incomplete Latin Square-type. Levels of activity were assessed every minute over the entire 6 h observation. […] (FIG. 1A; time-course) or cumulated shown in FIG. 1B for 0-3 h; or FIG. 1C for 3-6 hr. N=8 for all treatment groups. */**/*** represents P<0.05, P<0.01 or P<0.001 cf. vehicle-treatment; 2-way RM ANOVA (FIG. 1A) or 1-way RM-ANOVA with Holm-Sidak's Multiple Comparison test (FIGS. 1B and C) (ns—not significant).\nMPTP-lesioned cynomolgus monkeys received acute oral administration of either vehicle or Formula (i) (1, 10 or 20 mg/kg) according to a randomized incomplete Latin Square-type. Levels of bradykinesia were assessed every 10 min over the entire 6 h observation and total duration of ON-time (minutes for which bradykinesia was absent) was calculated. Data are mean±s.e.m. N=8 for all treatment groups. All P>0.05, cf vehicle-treatment; 1-way, RM-ANOVA with Holm-Sidak's Multiple Comparison test.\nParkinsonian disability is scored by a trained neurologist who is blinded to treatment allocation but is trained to differentiate normal from abnormal movements and is able to distinguish diminution of Parkinsonian disability from dyskinetic (abnormal) movements. MPTP-lesioned cynomolgus monkeys received acute oral administration of either vehicle or Formula (i) (1, 10 or 20 mg/kg) according to a randomized incomplete Latin Square-type. Levels of parkinsonian disability were assessed every 10 min over the entire 6 h observation. […] N=8 for all treatment groups. */P<0.05 cf. vehicle-treatment; 2-way RM ANOVA of ranked data (FIG. 5A) or 1-way RM-ANOVA with Holm-Sidak's Multiple Comparison test (FIGS. 5B and C).\n(§1) Eight cynomolgus monkeys (Macaca fascicularis, 6.4-6.8 years of age, 2.8-4.2 kg were used in this study. Animals were housed two or three per cage in the same housing room. The housing rooms were subject to a 12 hour light-dark cycle (lights on 7 a.m.), temperature 20-25° C. in a room containing only animals of the same sex. Fresh fruit, primate pellets and water were available ad libitum other than at times of overnight fasting prior to PK or behavioral assessment days.\n(§2) The animals were rendered parkinsonian via once-daily subcutaneous injection of MPTP (0.2 mg/kg), administered for between 9 and 12 days, until the appearance of parkinsonism symptoms. After this time, a parkinsonian syndrome reached a moderate to marked level, over approximately 30 days, and stabilized. […] L-DOPA naïve animals have received no L-DOPA and those showing established motor complication have received L-DOPA in an amount 25 mg/kg orally twice daily for at least 2 months. L-DOPA is given with the decarboxylase inhibitor benserazide (as Madopar™)."}, "[2]": {"test_system": "MPTP-lesioned macaques with established motor complications", "assay": "Monotherapy with DPI-289 in MPTP-lesioned macaques with established motor complications due to L-DOPA", "assay_type": "in vivo, Macaca fascicularis", "procedure": "This activity is measured by an infra-red movement detector and captures all movement, normal and abnormal. Data are mean±s.e.m. […] N=8 for all treatment groups. */**/*** represents P<0.05, P<0.01 or P<0.001 cf vehicle-treatment; 2-way RM ANOVA (FIG. 2A) or 1-way RM-ANOVA with Holm-Sidak's Multiple Comparison test (FIGS. 2B and C). […].\nParkinsonian disability is scored by a trained neurologist who is blinded to treatment allocation but is trained to differentiate normal from abnormal movements and is able to distinguish diminution of Parkinsonian disability from dyskinetic (abnormal) movements. Data are mean±s.e.m. […] N=8 for all treatment groups. */**/*** represents P<0.05, P<0.01 or P<0.001 cf. vehicle-treatment; 2-way RM ANOVA (FIG. 6A) or 1-way RM-ANOVA with Holm-Sidak's Multiple Comparison test (FIGS. 6 B and C).\nas §1, §2"}, "[3]": {"test_system": "unilateral 6-OHDA-lesioned Rats", "assay": "Postural asymmetry and dyskinesia (AIMs) on repeated dosing in unilateral 6-OHDA-lesioned rats", "assay_type": "in vivo, rat", "conditions": "3 mg/kg p.o. daily for 15 days"}, "[4]": {"conditions": "1, 10 or 20 mg/kg oral, Friedman test"}, "[5]": {"conditions": "any dose assessed (1, 10, 20 mg/kg oral)"}}, "note": "“Also recorded” adds a separate entry of the source."}
{"compound": "CCN(CC)C(=O)c1ccc(C(c2cccc(O)c2)N2C[C@@H](C)N(Cc3cccc(F)c3)C[C@@H]2C)cc1", "note": "(stereo partly drawn) [DPI-289, 4-((alpha-R)-alpha-((2S,5R)-2,5-Dimethyl-4-(3-fluorobenzyl)-1-piperazinyl)-3-hydroxybenzyl)-N,N-diethylbenzamide]", "values": [{"measurement": "total duration of ON-time (mean)", "setting": "[1]; 1 mg/kg oral, 6 h observation", "value": "46 ± 48", "unit": "min"}, {"measurement": "postural impairment level", "setting": "[1]; 10 mg/kg oral, 1-2 h period of observation (2-3 h after treatment), P<0.01 cf. vehicle", "value": "absent-mild levels"}, {"measurement": "increase in activity counts cf. vehicle", "setting": "[1]; 10 mg/kg oral, 1-2 h period of observation (2-3 h after treatment), P<0.05", "value": 62, "unit": "%"}, {"measurement": "parkinsonian disability level", "setting": "[1]; 10 mg/kg oral, 1-2 h period of observation (2-3 h after treatment), P<0.05 cf. vehicle (mild-moderate levels)", "value": "absent-mild levels"}, {"measurement": "total duration of ON-time (mean)", "setting": "[1]; 10 mg/kg oral, 6 h observation", "value": "49 ± 48", "unit": "min"}, {"measurement": "bradykinesia level", "setting": "[1]; 10 mg/kg oral, first four hours of observation (1-5 h after administration), P<0.05 cf. vehicle (moderate-marked levels)", "value": "mild-moderate levels"}, {"measurement": "increase in activity counts cf. vehicle", "setting": "[1]; 20 mg/kg oral, 1-2 h period of observation (2-3 h after treatment), P<0.01", "value": 63, "unit": "%"}, {"measurement": "increase in activity counts cf. vehicle", "setting": "[1]; 20 mg/kg oral, 2-3 h period of observation, P<0.05", "value": 82, "unit": "%"}, {"measurement": "total duration of ON-time (mean)", "setting": "[1]; 20 mg/kg oral, 6 h observation", "value": "1 ± 1", "unit": "min"}, {"measurement": "dyskinesia", "setting": "[1]; 1, 10 or 20 mg/kg oral, 6 h observation, listed as Formula (i)", "value": "did not evoke dyskinesia; also recorded: All zero values"}, {"measurement": "average postural impairment cumulated 0-3 h", "setting": "[1]; 1, 10 or 20 mg/kg oral, Friedman P=0.031, post-hoc Dunn's all P>0.05", "value": "significant effect of Formula (i) treatment"}, {"measurement": "average bradykinesia cumulated 0-3 h", "setting": "[1]; 1, 10 or 20 mg/kg oral, Friedman P=0.034, post-hoc Dunn's all P>0.05", "value": "significant effect of DPI-289 treatment"}, {"measurement": "average bradykinesia cumulated 3-6 h", "setting": "[1]; [4]", "value": "no significant effects"}, {"measurement": "average parkinsonism cumulated over 0-3 h and 3-6 h", "setting": "[1]; [4]", "value": "no significant effect"}, {"measurement": "average postural impairment cumulated 3-6 h", "setting": "[1]; [4]", "value": "no significant effects"}, {"measurement": "average activity cumulated over 0-3 h and 3-6 h", "setting": "[1]; 1, 10 or 20 mg/kg oral, cf. vehicle", "value": "no significant effect"}, {"measurement": "alertness", "setting": "[1]; [5]", "value": "no increase in levels of alertness"}, {"measurement": "range of movement", "setting": "[1]; [5]", "value": "no reduction in levels of impaired range of movement"}, {"measurement": "total duration of ON-time cf. vehicle", "setting": "[1]; [5]", "value": "no significant increase in total duration of ON-time"}, {"measurement": "bradykinesia", "setting": "[2]; 20 mg/kg", "value": "significant change only in the first hour"}, {"measurement": "ON-time", "setting": "[2]; 20 mg/kg oral", "value": "only limited on-time"}, {"measurement": "parkinsonian disability", "setting": "[2]; 20 mg/kg, two to three hours after dosing", "value": "significant reduction in parkinsonian disability"}, {"measurement": "postural impairment", "setting": "[2]; 1, 10 and 20 mg/kg, two to four hours after dosing", "value": "significant reduction in postural impairment"}, {"measurement": "range of movement", "setting": "[2]; 1, 10 or 20 mg/kg, three to four hours after dose", "value": "increase in the range of movement"}, {"measurement": "alertness", "setting": "[2]; 10 or 20 mg/kg, two to four hours after dosing", "value": "significant reduction in deficits in alertness"}, {"measurement": "dyskinesia", "setting": "[2]; L-DOPA primed animals, 1, 10, 20 mg/kg", "value": "does not cause dyskinesia"}, {"measurement": "duration of effect on parkinsonian disability", "setting": "[2]; single dose of 20 mg/kg", "value": "about 4 hours"}, {"measurement": "movement activity / motor impairment", "setting": "[2]; single oral dose of 10 or 20 mg/kg", "value": "significantly alleviated motor impairment for 1 to 4 hours"}, {"measurement": "dyskinesia (abnormal involuntary movements, AIMs)", "setting": "[3]", "value": "did not elicit dyskinesia"}, {"measurement": "postural asymmetry", "setting": "[3]", "value": "reduced or reversed the postural asymmetry"}]}
